Measurements as given in patent US8987285B2, “Pharmaceutical compositions, dosage forms and new forms of the compound of formula (I), and methods of use thereof” (Portola Pharmaceuticals, Inc., priority 2010, dated 2015).
“And” between values parts separate entries of the source, which are not always exact repeats. Equal values may be shown once.

Columns and labels:
[1] = Wettability: contact angle measurement with water on pressed powder; type: physicochemical; conditions: for surface hydrophobilicity from contact angle: critical angle around 50° (>50° hydrophob <50° hydrophil); for Contact angle: water, in ° (unit assumed)
Method: Contact angel instrument: EasyDrop DSA15E (Krüss, Hamburg, Germany)
Syringe: NE44, diameter of needle 0.5 mm (Krüss, Hamburg, Germany)
The powder was pressed (approx 50 mg powder, 3 tons, 2 min) in tablets and analyzed by contact angle measurement. The angel between the solid and the liquid is measured after 0 and up to 60 seconds using water.
All determinations used the above method and the limit for the standards measurements are well within the given limits.

[2] = Saturation solubility, shake-flask with UV quantification; type: physicochemical; conditions: listed as The compound of formula (I)
Method: The FaSSIF and FeSSIF solutions were prepared using Phares SIF powder according to the formulation instructions and the SGF solution was prepared using the guidelines provided. […] The pH and temperature of the supernatant were measured on a SiriusT3 instrument.

[3] = Super-saturation measurement (CheqSol): intrinsic and kinetic solubility; type: physicochemical; conditions: kinetic solubility divided by intrinsic solubility
Description: Anal. Chem. 2005, 77(4), 983-990; 2—Box, K J. Völgyi, G. Baka, E. Stuart, M. Takács-Novák, K. Corner, J E A. Equilibrium vs. kinetic measurements of aqueous solubility, and the ability of compounds to supersaturate in solution—a validation study. J. Pharm. Sci. 2006, 95, 1298-1307; 3—Sköld, C. Winiwarter, S. Johan Wernevik, J. Bergström, F. Engström, L. Allen, R. Box, K. Corner, J. Mole, J. Hallberg, A. Lennernäs, H. Lundstedt, T. Ungell, A-L. Karlén, A. Presentation of a Structurally Diverse and Commercially Available Drug Data Set for Correlation and Benchmarking Studies. J. Med. Chem. 2006, 49(23), 6660-6671;
. Med. Chem.; 2007, 50 (5), 979-983; 5—Llinás, A. Box, K J. Burley, J C. Glen, R C. Goodman, J M. J. A new method for the reproducible generation of polymorphs: two forms of Sulindac with very different solubilities. […] 6—Box K et al, Using Measured pKa, Log P and Solubility to Investigate Supersaturation and Predict BCS Class, Current Drug Metabolism, 2008, 9, 869-878]
1—kinetic solubility is the concentration of a compound in solution at the time when an induced precipitate first appears
2—equilibrium solubility (also called thermodynamic solubility) is the concentration of compound in a saturated solution when excess solid is present, and solution and solid are at equilibrium
3—intrinsic solubility [Hörter, D.; Dressman, J. B. Adv. Drug Deliv. Rev., 1997, 25, 3-14] is the equilibrium solubility of the free acid or base form of an ionisable compound at a pH where it is fully un-ionized
The super-saturation ratio is calculated as the ratio of kinetic solubility divided by the Intrinsic Solubility.

[4] = Comparison of pharmacokinetic effects (AUC, bioavailability) in human studies for polymorphic form B, A and D; type: in vivo; conditions: polymorphs of the potassium salt
Method: Comparison of pharmacokinetic effects in human studies for polymorphic form B, A and D of the potassium salt of elinogrel.
Therefore the polymorphic form does have a strong impact on the bioavailability of the drug.
The bioavailability is measured in a human study according to FDA guidelines for conducting bioavailability studies. The area under the curve (AUC) of elinogrel potassium salt polymorph.

[5] = Relative thermodynamic stability: cross-seeding, suspensions equilibrated, solid analysed by X-ray powder diffraction; type: physicochemical
Method: The relative thermodynamic stability of the anhydrous form poly-D in comparison with the known Forms A and B of the compound of formula (I) was assessed by cross-seeding experiments, where mixtures of the anhydrous form poly-D and Form A and mixtures of the anhydrous form poly-D and Form B were separately suspended in water, an organic solvent or mixtures of water and organic solvents. The suspension was then equilibrated at various temperatures for several days. The solid parts were then isolated by filtration and analysed by X-ray powder diffraction.

[6] = Pharmacokinetic Study 1: FMI tablets fasted/fed versus reference IR capsule, crossover, healthy adult volunteers; type: in vivo, human; conditions: high fat meal versus fasted, FMI tablets
Method: This was an open label, randomized, four-period, incomplete crossover, single center study in healthy adult volunteers. There were 4 treatments in the study: 3 doses of the FMI (given fasting or fed following a high-fat breakfast) and one reference IR capsule (given fed after a typical breakfast). The term “FMI” refers to the dosage form of Example 7 (30 mg FMI) or Example 8 (75 mg FMI).
Each subject was randomized to 1 of 18 treatment sequences, each with 4 treatment periods (Table 27). The first treatment period consisted of 1 of the 3 doses of FMI given fed, and treatment periods 2 to 4 consisted of 1 dose of IR capsule (fed) and 2 of the 3 doses of the FMI given fasted. […] Each subject therefore had 2 fasting treatments with the FMI formulation, 1 fed treatment with the FMI formulation and a reference treatment (IR capsule). Seventy two subjects enrolled and were dosed in the study with 70 completers.
The study consisted of a 28-day screening period, four baseline periods (one before each treatment period), four treatment periods with a wash out period of a minimum of 5 days, followed by a study completion evaluation approximately 72 hours after the last drug administration. Subjects who met the eligibility criteria at screening were admitted to baseline evaluations. All baseline safety evaluation results were available prior to dosing.
For fasted administration, elinogrel was administered in the morning, following an overnight fast of at least 10 hours. Subjects continued to fast until 4 hours post-dose. For fed administration of FMI tablets, elinogrel was administered in the morning, within 30 minutes of a high fat breakfast (approximately 1000 calories). Subjects continued to fast until 4 hours post-dose. For fed administration of the reference (IR capsule), it was administered in the morning, within 30 minutes of a typical breakfast (approximately 500 calories). Subjects continued to fast until 4 hours post-dose.
Subjects were admitted to the study site approximately 12 hours prior to dosing in each period for baseline evaluations. Following a single dose of elinogrel, PK assessments were taken up to 48 hours post dose and safety assessments were made for up to 72 hours.
Subjects were domiciled for 24 hours post dosing for PK sample collection, at which time they were discharged from the study site. Subjects returned on the following 2 mornings for 48 hour PK and 72 hour safety samples. Following the 72 hour safety assessments of treatment period 4 (or in the case of subject discontinuation) subjects underwent study completion evaluations and were discharged from the study. […].
This was a three-period, four-treatment crossover study design with an add-on food effect period (Period 1).
Treatment 1 (T1)=elinogrel 30 mg FMI dose fasting
Treatment 2 (T2)=elinogrel 75 mg FMI dose fasting
Treatment 3 (T3)=elinogrel 150 mg FMI dose fasting
Reference (R)=elinogrel 150 mg IR capsule dose fed (typical breakfast); Example 6 (Reference)
Fed treatment 1 (F1)=elinogrel 30 mg FMI dose fed (high fat breakfast)
Fed treatment 2 (F2)=elinogrel 75 mg FMI dose fed (high fat breakfast)
Fed treatment 3 (F3)=elinogrel 150 mg FMI dose fed (high fat breakfast)
Subjects will received the following treatments in a randomized order: • Treatment (T1, F1) with IR (IR=immediate release) tablet of Example 7 containing pH-modifying alkalizing agent, 30 mg in fasted and fed state. • Treatment (T2, F2) with IR (IR=immediate release) tablet of Example 8 containing pH-modifying alkalizing agent, 75 mg in fasted and fed state • Treatment (R) with 2×IR (IR=immediate release) capsule of Example 6 (Reference): 2×75 mg (150 mg) in fed state. • Treatment (T3, F3) with 2×IR (IR=immediate release) tablet of Example 8 containing pH-modifying alkalizing agent, 2×75 mg (150 mg) in fasted and fed state.
To evaluate the food effect, the geometric mean ratio for PK parameters of the fed versus fasted for each dose level and its 90% CI was estimated as shown in Table 29 below.

## CNc1cc2[nH]c(=O)n(-c3ccc(NC(=O)[N-]S(=O)(=O)c4ccc(Cl)s4)cc3)c(=O)c2cc1F.[K+] [Form B]
[1]; listed as polymorph B
  surface hydrophobilicity from contact angle: hydrophob
[1]; 0 sec, listed as B
  Contact angle: 79.7 and 72.4
[1]; 30 sec, listed as B
  Contact angle: 55.2 and 54.6
[1]; 60 sec, listed as B
  Contact angle: 52.8 and 53.5
[2]; FaSSIF pH 6.5-1w, mean N = 2, form B
  Saturation solubility: 0.1325 mg/mL
[2]; FaSSIF pH 6.5-1w, form B
  final pH measured of the supernatant: 6.97
[2]; FeSSIF pH 5.0-1w, mean N = 2, form B
  Saturation solubility: 0.00249 mg/mL
[2]; FeSSIF pH 5.0-1w, form B
  final pH measured of the supernatant: 5.16
[2]; Na Phosphate pH 6.8, mean N = 2, form B
  Saturation solubility: 0.02595 mg/mL
[2]; Na Phosphate pH 6.8, form B
  final pH measured of the supernatant: 7.02
[2]; Na-Acetate pH 4.5, mean N = 2, form B
  Saturation solubility: 0.0004 mg/mL
[2]; Na-Acetate pH 4.5, form B
  final pH measured of the supernatant: 4.81
[2]; SGF pH 2.1, mean N = 2, form B
  Saturation solubility: 0.01914 mg/mL
[2]; SGF pH 2.1, form B
  final pH measured of the supernatant: 5.05
[3]; listed as K-salt-Form B
  ratio super saturation: 363
[3]; listed as polymorph B of the compound of formula (I)
  ratio super saturation: 363
[4]; human, plasma, oral, 150 mg
  AUC: 27.6 µg·h/mL

## CNc1cc2[nH]c(=O)n(-c3ccc(NC(=O)[N-]S(=O)(=O)c4ccc(Cl)s4)cc3)c(=O)c2cc1F.[K+] [Form poly-D]
[1]; listed as polymorph poly-D, potassium salt
  surface hydrophobilicity from contact angle: hydrophilic
[1]; 0 sec, potassium salt
  Contact angle: 55.7 and 78.1 and 53.3
[1]; 10 sec, potassium salt
  Contact angle: 27.7 and 33.4 and 28.2
[1]; 20 sec, potassium salt
  Contact angle: 16.1 and 21.7 and 22.9
[1]; 30 sec, potassium salt
  Contact angle: 20.6
[1]; 60 sec, potassium salt
  Contact angle: 15.2
[2]; FaSSIF pH 6.5-1w, mean N = 2, form poly-D, potassium salt
  Saturation solubility: 0.1665 mg/mL
[2]; FaSSIF pH 6.5-1w, form poly-D, potassium salt
  final pH measured of the supernatant: 7.00
[2]; FeSSIF pH 5.0-1w, mean N = 2, form poly-D, potassium salt
  Saturation solubility: 0.00694 mg/mL
[2]; FeSSIF pH 5.0-1w, form poly-D, potassium salt
  final pH measured of the supernatant: 5.17
[2]; Na Phosphate pH 6.8, mean N = 2, form poly-D, potassium salt
  Saturation solubility: 0.09455 mg/mL
[2]; Na Phosphate pH 6.8, form poly-D, potassium salt
  final pH measured of the supernatant: 7.08
[2]; Na-Acetate pH 4.5, mean N = 2, form poly-D, potassium salt
  Saturation solubility: 0.00086 mg/mL
[2]; Na-Acetate pH 4.5, form poly-D, potassium salt
  final pH measured of the supernatant: 4.82
[2]; SGF pH 2.1, mean N = 2, form poly-D, potassium salt
  Saturation solubility: 0.0461 mg/mL
[2]; SGF pH 2.1, form poly-D, potassium salt
  final pH measured of the supernatant: 6.34
[5]; MeOH, 25° C./4 days
  solid form after equilibration (XRPD): No change
[5]; MeOH, 50° C./3 days
  solid form after equilibration (XRPD): No change
[5]; MeOH/water 1:1 v/v, 25° C./4 days
  solid form after equilibration (XRPD): No change
[5]; MeOH/water 1:1 v/v, 50° C./3 days
  solid form after equilibration (XRPD): No change
[5]; MeOH/water 1:2 v/v, 25° C./4 days
  solid form after equilibration (XRPD): No change
[5]; MeOH/water 1:2 v/v, 50° C./3 days
  solid form after equilibration (XRPD): No change
[5]; MeOH/water 2:1 v/v, 25° C./4 days
  solid form after equilibration (XRPD): No change
[5]; MeOH/water 2:1 v/v, 50° C./3 days
  solid form after equilibration (XRPD): No change
[5]; water, 25° C./4 days
  solid form after equilibration (XRPD): No change
[5]; water, 50° C./3 days
  solid form after equilibration (XRPD): No change
[6]
  food effect: significant negative food effect
[4]; 150 mg dose, listed as polymorph D, potassium salt
  AUC (bioavailability): 35.227 µg·h/mL
